# Results published in publication PMC6018746, “Activation of the p53-MDM4 regulatory axis defines the anti-tumour response to PRMT5 inhibition through its role in regulating cellular splicing” (Scientific Reports, 2018).
# Read-outs that look alike come from different tables or passages of the source.
# System: panel of hematologic and solid cancer lines
# Assay: 6-day in vitro growth/death assay
# Assay type: cell-based, human
# Conditions: read-out: gIC50
# Description: To further develop these molecules and to guide clinical strategy, it was necessary to understand sensitivity in preclinical models by assessing the anti-tumour activity of the PRMT5 inhibitors in various cancers.
# Cell lines were obtained from ATCC or DSMZ and were grown in recommended medium, which was most frequently RPMI-1640 containing 10% FBS. Cell line proliferation assays, Western blotting, qRT-PCR, and cell cycle analyses were performed as described previously[27],[28]. Antibody and gene expression reagents are as described in Supplementary Table 16. All studies were conducted in accordance with the GSK Policy on the Care, Welfare and Treatment of Laboratory Animals and were reviewed by the Institutional Animal Care and Use Committee either at GSK or by the ethical review process at the institution where the work was performed. Detailed descriptions of all methods can be found in the Supplemental Materials.
smiles,measurement,setting,value
O=C(NC[C@H](O)CN1CCc2ccccc2C1)c1ccnc(NC2CCC2)c1 [GSK3203591],IC50,5637,143 nM
same,IC50,A172,590 nM
same,IC50,BJAB,3100 nM
same,IC50,DOHH-2,116 nM
same,IC50,HCC70,522 nM
same,IC50,HCC1143,509 nM
same,IC50,HCC1806,261 nM
same,IC50,"Homo sapiens, 1A2, 1A2",333 nM
same,IC50,"Homo sapiens, 22Rv1, 22Rv1",23500 nM
same,IC50,"Homo sapiens, 639-V",731 nM
same,IC50,"Homo sapiens, 647-V",426 nM
same,IC50,"Homo sapiens, 769-P",> 29300 nM
same,IC50,"Homo sapiens, 5637",143 nM
same,IC50,"Homo sapiens, A 172, A172",590 nM
same,IC50,"Homo sapiens, A204, A204",> 29000 nM
same,IC50,"Homo sapiens, A498, A498",435 nM
same,IC50,"Homo sapiens, A549, A549",837 nM
same,IC50,"Homo sapiens, A-375, A-375",647 nM
same,IC50,"Homo sapiens, A-427, A427",276 nM
same,IC50,"Homo sapiens, AML-193",1400 nM
same,IC50,"Homo sapiens, AMO1, AMO-1",337 nM
same,IC50,"Homo sapiens, ARH-77, ARH-77",238 nM
same,IC50,"Homo sapiens, ASPC1, ASPC1",424 nM
same,IC50,"Homo sapiens, BC-3C",408 nM
same,IC50,"Homo sapiens, BFTC-905, BFTC-905",440 nM
same,IC50,"Homo sapiens, BJAB",3100 nM
same,IC50,"Homo sapiens, BT-20, BT-20",8160 nM
same,IC50,"Homo sapiens, BT-474, BT-474",5740 nM
same,IC50,"Homo sapiens, BT-549, BT549",17800 nM
same,IC50,"Homo sapiens, CA46, CA-46",580 nM
same,IC50,"Homo sapiens, CAKI-1, Caki-1",578 nM
same,IC50,"Homo sapiens, CAL-29",817 nM
same,IC50,"Homo sapiens, CAL-51, CAL-51",2300 nM
same,IC50,"Homo sapiens, CAL-85-1, CAL-85-1",1740 nM
same,IC50,"Homo sapiens, CAMA-1, CAMA-1",7330 nM
same,IC50,"Homo sapiens, CAPAN-1, CAPAN1",1110 nM
same,IC50,"Homo sapiens, CHP-212, CHP-212",16.3 nM
same,IC50,"Homo sapiens, COLO 201, Colo 201",661 nM
same,IC50,"Homo sapiens, COLO 205, Colo 205",694 nM
same,IC50,"Homo sapiens, COLO 320DM, COLO-320DM",2350 nM
same,IC50,"Homo sapiens, COLO-320-HSR, Colo 320 HSR",2220 nM
same,IC50,"Homo sapiens, COLO-741, COLO-741",2910 nM
same,IC50,"Homo sapiens, COR-L23, COR-L23",786 nM
same,IC50,"Homo sapiens, COR-L105, COR-L105",> 29300 nM
same,IC50,"Homo sapiens, Caco-2, CaCo-2",740 nM
same,IC50,"Homo sapiens, Calu-1, Calu1",> 29300 nM
same,IC50,"Homo sapiens, Calu-6, Calu6",1280 nM
same,IC50,"Homo sapiens, Capan-2, CAPAN2",1060 nM
same,IC50,"Homo sapiens, ChaGo-K-1, Cha-Go-K1",2820 nM
same,IC50,"Homo sapiens, DB",346 nM
same,IC50,"Homo sapiens, DBTRG-05MG, DBTRG05MG",> 29300 nM
same,IC50,"Homo sapiens, DLD-1, DLD-1",2430 nM
same,IC50,"Homo sapiens, DMS-114, DMS114",9170 nM
same,IC50,"Homo sapiens, DMS-273, DMS273",262 nM
same,IC50,"Homo sapiens, DOHH-2, DOHH-2",116 nM
same,IC50,"Homo sapiens, DU-145, DU145",3720 nM
same,IC50,"Homo sapiens, DU-4475, DU-4475",1010 nM
same,IC50,"Homo sapiens, EBC-1, EBC-1",239 nM
same,IC50,"Homo sapiens, EFM-19, EFM-19",162 nM
same,IC50,"Homo sapiens, F-36P",1880 nM
same,IC50,"Homo sapiens, G-361, G-361",4360 nM
same,IC50,"Homo sapiens, G-401, G-401",189 nM
same,IC50,"Homo sapiens, GDM-1, GDM-1",42.3 nM
same,IC50,"Homo sapiens, GF-D8",33200 nM
same,IC50,"Homo sapiens, HCC38, HCC38",127 nM
same,IC50,"Homo sapiens, HCC70, HCC70",522 nM
same,IC50,"Homo sapiens, HCC827, HCC827",21000 nM
same,IC50,"Homo sapiens, HCC1143, HCC1143",509 nM
same,IC50,"Homo sapiens, HCC1395, HCC1395",14700 nM
same,IC50,"Homo sapiens, HCC1569, HCC1569",11300 nM
same,IC50,"Homo sapiens, HCC1806, HCC1806",261 nM
same,IC50,"Homo sapiens, HCC1937, HCC1937",956 nM
same,IC50,"Homo sapiens, HCC2935, HCC2935",21600 nM
same,IC50,"Homo sapiens, HCC4006, HCC4006",170 nM
same,IC50,"Homo sapiens, HCT-15, HCT-15",1250 nM
same,IC50,"Homo sapiens, HCT-116, HCT-116",10000 nM
same,IC50,"Homo sapiens, HD-MY-Z",143 nM
same,IC50,"Homo sapiens, HEL 92.1.7, HEL 92.1.7",12400 nM
same,IC50,"Homo sapiens, HL-60, HL60",4270 nM
same,IC50,"Homo sapiens, HOS",> 29000 nM
same,IC50,"Homo sapiens, HPAC",901 nM
same,IC50,"Homo sapiens, HPAF-II, HPAFII",957 nM
same,IC50,"Homo sapiens, HT115, HT115",1740 nM
same,IC50,"Homo sapiens, HT-29, HT-29",1810 nM
same,IC50,"Homo sapiens, HT-144, HT-144",1050 nM
same,IC50,"Homo sapiens, HT-1376, HT-1376",13100 nM
same,IC50,"Homo sapiens, HT",272 nM
same,IC50,"Homo sapiens, Hs 445, Hs445",976 nM
same,IC50,"Homo sapiens, Hs766T",1970 nM
same,IC50,"Homo sapiens, Hs-578T, Hs578t",18200 nM
same,IC50,"Homo sapiens, HuNS1, Huns1",887 nM
same,IC50,"Homo sapiens, HuP-T3, HuP-T3",3390 nM
same,IC50,"Homo sapiens, HuP-T4, HuP-T4",190 nM
same,IC50,"Homo sapiens, HuT78, HuT78",103 nM
same,IC50,"Homo sapiens, IGR-1, IGR-1",8760 nM
same,IC50,"Homo sapiens, IGROV-1, IGROV-1",189 nM
same,IC50,"Homo sapiens, J82, J82",20900 nM
same,IC50,"Homo sapiens, JJN-3, JJN3",164 nM
same,IC50,"Homo sapiens, JM1, JM1",75.8 nM
same,IC50,"Homo sapiens, JMSU-1, JMSU-1",583 nM
same,IC50,"Homo sapiens, JVM-2, JVM-2",172 nM
same,IC50,"Homo sapiens, JY",95.1 nM
same,IC50,"Homo sapiens, JeKo-1, JeKo-1",6190 nM
same,IC50,"Homo sapiens, K562, K562",310 nM
same,IC50,"Homo sapiens, KMS-11, KMS-11",46.8 nM
same,IC50,"Homo sapiens, KMS-12-BM",190 nM
same,IC50,"Homo sapiens, KO52",513 nM
same,IC50,"Homo sapiens, KP-3",99.9 nM
same,IC50,"Homo sapiens, KP-4, KP-4",20800 nM
same,IC50,"Homo sapiens, KPL-1, KPL-1",4110 nM
same,IC50,"Homo sapiens, KS-1",85.5 nM
same,IC50,"Homo sapiens, KU-19-19, KU-19-19",1110 nM
same,IC50,"Homo sapiens, Kasumi 1, KASUMI-1",13200 nM
same,IC50,"Homo sapiens, L-363, L363",65.7 nM
same,IC50,"Homo sapiens, L-428, L-428",665 nM
same,IC50,"Homo sapiens, LC-1sq",7590 nM
same,IC50,"Homo sapiens, LK-2, LK2",89.9 nM
same,IC50,"Homo sapiens, LN-18, LN-18",9680 nM
same,IC50,"Homo sapiens, LN-229, LN-229",1150 nM
same,IC50,"Homo sapiens, LNCaP",18900 nM
same,IC50,"Homo sapiens, LP-1, LP1",975 nM
same,IC50,"Homo sapiens, LS-411N, Ls411N",442 nM
same,IC50,"Homo sapiens, LoVo",494 nM
same,IC50,"Homo sapiens, Lu-65, LU65",463 nM
same,IC50,"Homo sapiens, Lu-99, LU-99",5300 nM
same,IC50,"Homo sapiens, M059J",18900 nM
same,IC50,"Homo sapiens, M059K",7890 nM
same,IC50,"Homo sapiens, MC116, MC116",82 nM
same,IC50,"Homo sapiens, MC/CAR",2740 nM
same,IC50,"Homo sapiens, MCF7, MCF-7",215 nM
same,IC50,"Homo sapiens, MDA-MB-157, MDA-MB-157",3250 nM
same,IC50,"Homo sapiens, MDA-MB-231, MDA-MB-231",2930 nM
same,IC50,"Homo sapiens, MDA-MB-435S",2220 nM
same,IC50,"Homo sapiens, MDA-MB-436, MDA-MB-436",7130 nM
same,IC50,"Homo sapiens, MDA-MB-453, MDA-MB-453",343 nM
same,IC50,"Homo sapiens, MDA-MB-468, MDA-MB-468",585 nM
same,IC50,"Homo sapiens, ME-1, ME1",2450 nM
same,IC50,"Homo sapiens, MEL-HO",1550 nM
same,IC50,"Homo sapiens, MEL-JUSO",79.3 nM
same,IC50,"Homo sapiens, MHH-PREB-1, MHH-PREB-1",3300 nM
same,IC50,"Homo sapiens, MIA PaCa-2, Miapaca-2",263 nM
same,IC50,"Homo sapiens, MINO",536 nM
same,IC50,"Homo sapiens, ML-2, ML-2",115 nM
same,IC50,"Homo sapiens, MOLM16, MOLM-16",31000 nM
same,IC50,"Homo sapiens, MOLM-13, MOLM-13",86.2 nM
same,IC50,"Homo sapiens, MOLP-2, MOLP-2",22100 nM
same,IC50,"Homo sapiens, MONO-MAC-6, MonoMac6",196 nM
same,IC50,"Homo sapiens, MV4-11, MV-4-11",94.7 nM
same,IC50,"Homo sapiens, Maver1, MAVER-1",133 nM
same,IC50,"Homo sapiens, NALM-6, NALM-6",1060 nM
same,IC50,"Homo sapiens, NB-4, NB-4",80.9 nM
same,IC50,"Homo sapiens, NCI-H146, NCI-H146",411 nM
same,IC50,"Homo sapiens, NCI-H292, NCI-H292",1340 nM
same,IC50,"Homo sapiens, NCI-H322, NCI-H322",1700 nM
same,IC50,"Homo sapiens, NCI-H441, NCI-H441",22400 nM
same,IC50,"Homo sapiens, NCI-H520, NCI-H520",26.1 nM
same,IC50,"Homo sapiens, NCI-H522, NCI-H522",> 29300 nM
same,IC50,"Homo sapiens, NCI-H526, NCI-H526",138 nM
same,IC50,"Homo sapiens, NCI-H526-R",219 nM
same,IC50,"Homo sapiens, NCI-H647, NCI-H647",2530 nM
same,IC50,"Homo sapiens, NCI-H661, NCI-H661",30800 nM
